This is an account of results in patent publication US12419874B2, “GLP-1R agonist compound and use thereof” (Chongqing Pharmaceutical Research Institute Co., Ltd., priority 2024, dated 2025).

The EC50 is the concentration at which the effect is half-maximal.

Where only a bound is given, the exact number is not on record here.

This test deals with GLP-1R (Homo sapiens, UniProt P43220). As to the kind of experiment: GLP-1R agonistic activity by One-Lite luciferase assay in HEK293-GLP-1R-luc cells (Example 59). Conditions: 6 h incubation, read-out: cAMP EC50. It is filed as cell-based. The method, then: The agonistic activities of the compounds of the present disclosure on GLP-1R were evaluated by detecting the generation of cAMP.
Sequence of GLP-1R (P43220 24-463): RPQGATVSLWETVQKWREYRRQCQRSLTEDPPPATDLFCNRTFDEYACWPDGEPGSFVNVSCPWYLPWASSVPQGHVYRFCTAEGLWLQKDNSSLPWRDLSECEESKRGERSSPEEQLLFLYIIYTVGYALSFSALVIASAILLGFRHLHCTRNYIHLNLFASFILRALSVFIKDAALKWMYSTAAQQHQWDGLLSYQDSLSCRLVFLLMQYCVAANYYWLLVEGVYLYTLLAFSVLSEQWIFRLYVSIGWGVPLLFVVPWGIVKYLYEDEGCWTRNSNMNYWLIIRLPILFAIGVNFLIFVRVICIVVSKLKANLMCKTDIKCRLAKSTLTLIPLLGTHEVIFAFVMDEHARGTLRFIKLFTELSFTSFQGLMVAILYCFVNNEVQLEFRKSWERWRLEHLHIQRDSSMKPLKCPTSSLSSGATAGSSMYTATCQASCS
• (1) Cell line: HEK293-GLP-1R-luc Stable Cell Line (Cobioer, CBP71117); • (2) Culture medium: DMEM+10% FBS (Gibco); • (3) Kit: One-Lite™ kit Luciferase Assay System (Vazyme). 2. Experimental Procedures • (1) HEK293-GLP1R cells were inoculated in a 96-well plate at a density of 30000 cells per well; • (2) 10× working solution of each compound was formulated; • (3) 10 μL of 10× working solution of each compound was added to corresponding well and incubated at 37° C. for 6 h; • (4) 100 μL of One-Lite Luciferase Assay Substrate formulated using One-Lite Luciferase Assay Buffer was added to each well; • (5) The plate was incubated at room temperature for 3 min; • (6) The plate was read by a multimode microplate reader to detect chemiluminescence. 3. Data Analysis • (1) % Activity was calculated by the following formula: % Activity=100−(Signalcmpd−SignalAve-PC)/(SignalAve-VC−SignalAve-PC)×100 • (2) The dose-response curve was plotted to calculate EC50: Y=Bottom+(Top−Bottom)/(1+10^(Log EC50−X)*HillSlope)) • X: log of agonist concentration; Y: Activity. 4. Experimental Results

Take `Cc1cc(-n2nc3c(c2-n2ccn(-c4ccc5c(cnn5C)c4F)c2=O)[C@H](C)N(C(=O)c2cc4cc(N5CCOC(C)(C)C5)ccc4n2C2(c4noc(=O)[nH]4)CC2)CC32CC2)cc(C)c1F` [Compound 177]: the EC50 was at most 20 nM. Next, `Cc1cc(-n2nc3c(c2-n2ccn(-c4ccc5c(cnn5C)c4F)c2=O)[C@H](C)N(C(=O)c2cc4cc([C@H]5CCOC(C)(C)C5)ccc4n2[C@@]2(c4noc(=O)[nH]4)C[C@@H]2C)CC32COC2)cc(C)c1F` [Compound 21]: at most 20 nM. As for `Cc1cc(-n2nc3c(c2-n2ccn(-c4ccc5c(cnn5C)c4F)c2=O)[C@H](C)N(C(=O)c2cc4cc([C@H]5CCOC(C)(C)C5)ccc4n2[C@@]2(c4noc(=O)[nH]4)C[C@@H]2C)CC32CN(S(C)(=O)=O)C2)cc(C)c1F` [Compound 168], the figure is at most 20 nM; as for `Cc1cc(-n2nc3c(c2-n2ccn(-c4ccc5c(cnn5C)c4F)c2=O)[C@H](C)N(C(=O)c2cc4cc([C@H]5CCOC(C)(C)C5)ccc4n2[C@@]2(c4noc(=O)[nH]4)C[C@@H]2C)CC32CCC2)cc(C)c1F` [Compound 23], at most 20 nM. Next, `Cc1cc(-n2nc3c(c2-n2ccn(-c4ccc5c(cnn5C)c4F)c2=O)[C@H](C)N(C(=O)c2cc4cc([C@H]5CCOC(C)(C)C5)ccc4n2[C@@]2(c4noc(=O)[nH]4)C[C@@H]2C)CC32CC(F)C2)cc(C)c1F` (stereo partly drawn) [Compound 182]: at most 20 nM. For the compound `Cc1cc(-n2nc3c(c2-n2ccn(-c4ccc5c(cnn5C)c4F)c2=O)[C@H](C)N(C(=O)c2cc4cc([C@H]5CCOC(C)(C)C5)ccc4n2[C@@]2(c4noc(=O)[nH]4)C[C@@H]2C)CC32CCCC2)cc(C)c1F` [Compound 25], the concentration giving a half-maximal response (EC50) was at most 20 nM.

Regarding `Cc1cc(-n2nc3c(c2-n2ccn(-c4ccc5c(cnn5C)c4F)c2=O)[C@H](C)N(C(=O)c2cc4cc([C@H]5CCOC(C)(C)C5)ccc4n2[C@@]2(c4noc(=O)[nH]4)C[C@@H]2C)CC32C[C@@H]2C)cc(C)c1F` (stereo partly drawn) [Compound 227], the 50% effective concentration (EC50) lay in the range of 20 to 100 nM. For the compound `Cc1cc(-n2nc3c(c2-n2ccn(-c4ccc5c(cnn5C)c4F)c2=O)[C@H](C)N(C(=O)c2cc4cc(C5CCOCC5)ccc4n2[C@@]2(c4noc(=O)[nH]4)C[C@@H]2C)CC32CC2)cc(C)c1F` [Compound 175], the concentration for a half-maximal effect (EC50) lay in the range of 20 to 100 nM.

Take `Cc1cc(-n2nc3c(c2-n2ccn(-c4ccc5c(cnn5C)c4F)c2=O)[C@H](C)N(C(=O)c2cc4cc([C@H]5CCOC(C)(C)C5)ccc4n2[C@@]2(c4noc(=O)[nH]4)C[C@@H]2C)CC32CCC(O)C2)cc(C)c1F` (stereo partly drawn) [Compound 209]: the EC50 is at most 20 nM. As for `Cc1cc(-n2nc3c(c2-n2ccn(-c4ccc5c(cnn5C)c4F)c2=O)[C@H](C)N(C(=O)c2cc4cc([C@H]5CCOC(C)(C)C5)ccc4n2[C@@]2(c4noc(=O)[nH]4)C[C@@H]2C)CC32CC(OC3CC3)C2)cc(C)c1F` (stereo partly drawn) [Compound 193], the figure is at most 20 nM; as for `Cc1cc(-n2nc3c(c2-n2ccn(-c4ccc5c(cnn5C)c4F)c2=O)[C@H](C)N(C(=O)c2cc4cc([C@H]5CCOC(C)(C)C5)ccc4n2[C@@]2(c4noc(=O)[nH]4)C[C@@H]2C)CC32CN(C(=O)C(F)(F)F)C2)cc(C)c1F` [Compound 167], at most 20 nM. As for `Cc1cc(-n2nc3c(c2-n2ccn(-c4ccc5c(cnn5C)c4F)c2=O)[C@H](C)N(C(=O)c2cc4cc([C@H]5CCOC(C)(C)C5)ccc4n2[C@@]2(c4noc(=O)[nH]4)C[C@@H]2C)CC32CCC(O)CC2)cc(C)c1F` (stereo partly drawn) [Compound 199], the figure is at most 20 nM; as for `Cc1cc(-n2nc3c(c2-n2ccn(-c4ccc5c(cnn5C)c4F)c2=O)[C@H](C)N(C(=O)c2cc4cc([C@H]5CCOC(C)(C)C5)ccc4n2[C@@]2(c4noc(=O)[nH]4)C[C@@H]2C)CC32CCN(C(=O)C(F)(F)F)CC2)cc(C)c1F` [Compound 155], at most 20 nM. Next, `Cc1cc(-n2nc3c(c2-n2ccn(-c4ccc5c(cnn5C)c4F)c2=O)[C@H](C)N(C(=O)c2cc4cc([C@H]5CCOC(C)(C)C5)ccc4n2[C@@]2(c4noc(=O)[nH]4)C[C@@H]2C)CC32CC2(F)F)cc(C)c1F` (stereo partly drawn) [Compound 225]: at most 20 nM. As for `Cc1cc(-n2nc3c(c2-n2ccn(-c4ccc5c(cnn5C)c4F)c2=O)[C@H](C)N(C(=O)c2cc4cc([C@H]5CCOC(C)(C)C5)ccc4n2C2(c4noc(=O)[nH]4)CC2)CC32CC2)cc(C)c1F` [Compound 169], the concentration for a half-maximal effect (EC50) was at most 20 nM.

For the compound `CNC1CCC2(C1)CN(C(=O)c1cc3cc([C@H]4CCOC(C)(C)C4)ccc3n1[C@@]1(c3noc(=O)[nH]3)C[C@@H]1C)[C@@H](C)c1c2nn(-c2cc(C)c(F)c(C)c2)c1-n1ccn(-c2ccc3c(cnn3C)c2F)c1=O` (stereo partly drawn) [Compound 229], the concentration for a half-maximal effect (EC50) was at most 20 nM.

As for `CCOC1CC2(C1)CN(C(=O)c1cc3cc([C@H]4CCOC(C)(C)C4)ccc3n1[C@@]1(c3noc(=O)[nH]3)C[C@@H]1C)[C@@H](C)c1c2nn(-c2cc(C)c(F)c(C)c2)c1-n1ccn(-c2ccc3c(cnn3C)c2F)c1=O` (stereo partly drawn) [Compound 187], the EC50 was at most 20 nM. Turning to `Cc1cc(-n2nc3c(c2-n2ccn(-c4ccc5c(cnn5C)c4F)c2=O)[C@H](C)N(C(=O)c2cc4cc([C@H]5CCOC(C)(C)C5)ccc4n2[C@@]2(c4noc(=O)[nH]4)C[C@@H]2C)CC32CC(OC(F)F)C2)cc(C)c1F` (stereo partly drawn) [Compound 194], the half-maximal effective concentration (EC50) is at most 20 nM. Next, `Cc1cc(-n2nc3c(c2-n2ccn(-c4ccc5c(cnn5C)c4F)c2=O)[C@H](C)N(C(=O)c2cc4cc([C@H]5CCOC(C)(C)C5)ccc4n2[C@@]2(c4noc(=O)[nH]4)C[C@@H]2C)CC32CCOC2)cc(C)c1F` (stereo partly drawn) [Compound 29]: at most 20 nM; `Cc1cc(-n2nc3c(c2-n2ccn(-c4ccc5c(cnn5C)c4F)c2=O)[C@H](C)N(C(=O)c2cc4cc([C@H]5CCOC(C)(C)C5)ccc4n2[C@@]2(c4noc(=O)[nH]4)C[C@@H]2C)CC32CCN(C=O)C2)cc(C)c1F` (stereo partly drawn) [Compound 83]: at most 20 nM; `Cc1cc(-n2nc3c(c2-n2ccn(-c4ccc5c(cnn5C)c4F)c2=O)[C@H](C)N(C(=O)c2cc4cc([C@H]5CCOC(C)(C)C5)ccc4n2[C@@]2(c4noc(=O)[nH]4)C[C@@H]2C)CC32CCN(C(=O)[C@H](C)N)CC2)cc(C)c1F` [Compound 160]: at most 20 nM. Next, `Cc1cc(-n2nc3c(c2-n2ccn(-c4ccc5c(cnn5C)c4F)c2=O)[C@H](C)N(C(=O)c2cc4cc([C@H]5CCOC(C)(C)C5)ccc4n2[C@@]2(c4noc(=O)[nH]4)C[C@@H]2C)CC32CCC(=O)CC2)cc(C)c1F` [Compound 198]: at most 20 nM; `Cc1cc(-n2nc3c(c2-n2ccn(-c4ccc5c(cnn5C5CC5)c4F)c2=O)[C@H](C)N(C(=O)c2cc4cc([C@H]5CCOC(C)(C)C5)ccc4n2[C@@]2(c4noc(=O)[nH]4)C[C@@H]2C)CC32CC2)cc(C)c1F` [Compound 221]: at most 20 nM; `Cc1cc(-n2nc3c(c2-n2ccn(-c4ccc5c(cnn5C)c4F)c2=O)[C@H](C)N(C(=O)c2cc4cc(N5CCOC(C)(C)C5)ccc4n2[C@@]2(c4noc(=O)[nH]4)C[C@@H]2C)CC32CC2)cc(C)c1F` [Compound 173]: 20 to 100 nM. Consider `CC(=O)N1CC2(C1)CN(C(=O)c1cc3cc([C@H]4CCOC(C)(C)C4)ccc3n1[C@@]1(c3noc(=O)[nH]3)C[C@@H]1C)[C@@H](C)c1c2nn(-c2cc(C)c(F)c(C)c2)c1-n1ccn(-c2ccc3c(cnn3C)c2F)c1=O` [Compound 166], for which the EC50 was at most 20 nM.

Take `C[C@H]1c2c(nn(-c3ccc(F)c(C4CC4)c3)c2-n2ccn(-c3ccc4c(cnn4C)c3F)c2=O)C2(CC2)CN1C(=O)c1cc2cc([C@H]3CCOC(C)(C)C3)ccc2n1[C@@]1(c2noc(=O)[nH]2)C[C@@H]1C` [Compound 171]: the concentration giving a half-maximal response (EC50) is at most 20 nM. As for `C[C@H]1C[C@]1(c1noc(=O)[nH]1)n1c(C(=O)N2C3CCCC2c2c(nn(-c4ccc(F)c(C5CC5)c4)c2-n2ccn(-c4ccc5c(cnn5C)c4F)c2=O)C3)cc2cc([C@H]3CCOC(C)(C)C3)ccc21` (stereo partly drawn) [Compound 151], the figure is at most 20 nM; as for `Cc1cc(-n2nc3c(c2-n2ccn(-c4ccc5nn(CC(F)(F)F)cc5c4F)c2=O)[C@H](C)N(C(=O)c2cc4cc([C@H]5CCOC(C)(C)C5)ccc4n2[C@@]2(c4noc(=O)[nH]4)C[C@@H]2C)CC32CC2)cc(C)c1F` [Compound 224], 20 to 100 nM.

Take `Cc1cc(-n2nc3c(c2-n2ccn(-c4ccc5c(cnn5C)c4F)c2=O)[C@H](C)N(C(=O)c2cc4cc(C5CCOCC5)ccc4n2C2(c4noc(=O)[nH]4)CC2)CC32CC2)cc(C)c1F` [Compound 174]: the EC50 fell in the range of 100 to 300 nM. As for `CC(=O)N1CCC2(CC1)CN(C(=O)c1cc3cc([C@H]4CCOC(C)(C)C4)ccc3n1[C@@]1(c3noc(=O)[nH]3)C[C@@H]1C)[C@@H](C)c1c2nn(-c2cc(C)c(F)c(C)c2)c1-n1ccn(-c2ccc3c(cnn3C)c2F)c1=O` [Compound 91], the figure is at most 20 nM; as for `CNC1CC2(C1)CN(C(=O)c1cc3cc([C@H]4CCOC(C)(C)C4)ccc3n1[C@@]1(c3noc(=O)[nH]3)C[C@@H]1C)[C@@H](C)c1c2nn(-c2cc(C)c(F)c(C)c2)c1-n1ccn(-c2ccc3c(cnn3C)c2F)c1=O` (stereo partly drawn) [Compound 220], at most 20 nM; as for `Cc1cc(-n2nc3c(c2-n2ccn(-c4ccc5c(cnn5C)c4F)c2=O)[C@H](C)N(C(=O)c2cc4cc([C@H]5CCOC(C)(C)C5)ccc4n2[C@@]2(c4noc(=O)[nH]4)C[C@@H]2C)CC32CCC(F)(F)C2)cc(C)c1F` (stereo partly drawn) [Compound 212], at most 20 nM. Next, `Cc1cc(-n2nc3c(c2-n2ccn(-c4ccc5c(cnn5C)c4F)c2=O)[C@H](C)N(C(=O)c2cc4cc([C@H]5CCOC(C)(C)C5)ccc4n2[C@@]2(c4noc(=O)[nH]4)C[C@@H]2C)CC32CNC2)cc(C)c1F` [Compound 15]: at most 20 nM.
